Results as given in ChEMBL document CHEMBL3044753, “Polyamines May Modulate Both G Protein-Coupled Receptors and G Proteins” (Med Chem Res, 2004).
pEC50: −log10 of the molar value. Activity calls are given as the source filed them. The calls are words filed in the database; no cut-off is given here.

Columns and labels:
Right cardiac atrium [1] = test: Negative ionotropic activity in electrically-paced Cavia porcellus (guinea pig) right atrium measured after 60 min by isometric transducer analysis in presence of AM 251; format: functional, tissue-based
[2] = target: T1, Muscarinic acetylcholine receptor M5 (Homo sapiens) (UniProt P08912); test: Binding affinity to Homo sapiens (human) recombinant muscarinic M5 receptor expressed in CHO cells assessed as [35S]GTPgammaS binding; format: functional, cell-based
T1 sequence (whole entry): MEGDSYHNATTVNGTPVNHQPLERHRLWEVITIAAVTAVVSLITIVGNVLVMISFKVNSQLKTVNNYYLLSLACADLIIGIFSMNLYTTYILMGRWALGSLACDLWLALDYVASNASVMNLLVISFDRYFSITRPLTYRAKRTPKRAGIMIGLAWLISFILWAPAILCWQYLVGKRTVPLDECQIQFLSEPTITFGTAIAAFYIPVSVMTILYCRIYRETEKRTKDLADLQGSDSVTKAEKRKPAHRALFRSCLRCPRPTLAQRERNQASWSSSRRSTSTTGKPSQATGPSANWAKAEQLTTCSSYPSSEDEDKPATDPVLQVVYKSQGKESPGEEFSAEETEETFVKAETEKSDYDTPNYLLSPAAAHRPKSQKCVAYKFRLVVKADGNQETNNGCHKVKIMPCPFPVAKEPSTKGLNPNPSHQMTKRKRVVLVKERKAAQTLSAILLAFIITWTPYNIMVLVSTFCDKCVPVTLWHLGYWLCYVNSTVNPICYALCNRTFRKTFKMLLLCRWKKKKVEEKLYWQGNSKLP

[3] = target: Muscarinic acetylcholine receptor M3 (Homo sapiens) (UniProt P20309); test: Allosteric modulation of Homo sapiens (human) recombinant muscarinic M3 receptor expressed in CHO cells assessed as inhibition of carbachol-induced [35S]GTPgammaS binding; format: functional, cell-based
Muscarinic acetylcholine receptor M3 (Homo sapiens), sequence (P20309 whole entry, looked up): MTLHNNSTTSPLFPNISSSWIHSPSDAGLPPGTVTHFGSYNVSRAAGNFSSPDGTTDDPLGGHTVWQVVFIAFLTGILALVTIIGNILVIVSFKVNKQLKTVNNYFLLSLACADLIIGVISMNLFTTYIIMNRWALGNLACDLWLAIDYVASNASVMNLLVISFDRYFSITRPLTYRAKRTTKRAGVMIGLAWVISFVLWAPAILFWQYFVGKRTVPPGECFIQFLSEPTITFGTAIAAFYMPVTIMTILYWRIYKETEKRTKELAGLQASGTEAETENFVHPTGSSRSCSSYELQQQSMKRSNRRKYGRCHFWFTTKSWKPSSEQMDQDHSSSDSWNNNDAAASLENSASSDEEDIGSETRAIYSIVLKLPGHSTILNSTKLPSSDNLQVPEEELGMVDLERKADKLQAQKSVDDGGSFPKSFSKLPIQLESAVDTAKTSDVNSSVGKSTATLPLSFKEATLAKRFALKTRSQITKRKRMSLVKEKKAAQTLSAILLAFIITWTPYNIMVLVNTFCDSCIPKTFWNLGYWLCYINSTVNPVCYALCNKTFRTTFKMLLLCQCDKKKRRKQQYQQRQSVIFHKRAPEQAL

Left cardiac atrium [4] = test: Negative ionotropic activity in electrically-paced Cavia porcellus (guinea pig) left atrium measured after 60 min by isometric transducer analysis in presence of pimozide; format: functional, tissue-based
Right cardiac atrium [5] = test: Negative ionotropic activity in electrically-paced Cavia porcellus (guinea pig) right atrium measured after 60 min by isometric transducer analysis in presence of 4-DAMP mustard; format: functional, tissue-based
Right cardiac atrium [6] = test: Negative […] activity in electrically-paced Cavia porcellus (guinea pig) right atrium assessed as effect on force measured after 60 min by isometric transducer analysis in absence of benextramine/4-DAMP mustard; format: functional, tissue-based; details: 1 h
Left cardiac atrium [7] = test: Reversible negative ionotropic activity in electrically-paced Cavia porcellus (guinea pig) left atrium incubated for 30 min followed by compound-washout measured after 3 hr by isometric transducer analysis; format: functional, tissue-based
Left cardiac atrium [8] = test: Negative ionotropic activity in electrically-paced Cavia porcellus (guinea pig) left atrium measured after 60 min by isometric transducer analysis in presence of DPCPX; format: functional, tissue-based
Right cardiac atrium [9] = test: Negative ionotropic activity in electrically-paced Cavia porcellus (guinea pig) right atrium measured after 60 min by isometric transducer analysis in presence of prazosin; format: functional, tissue-based
[10] = target: T2, Muscarinic acetylcholine receptor M2 (Homo sapiens) (UniProt P08172); test: Allosteric modulation of Homo sapiens (human) recombinant muscarinic M2 receptor expressed in CHO cells assessed as inhibition of carbachol-induced [35S]GTPgammaS binding; format: functional, cell-based
T2 sequence (whole entry): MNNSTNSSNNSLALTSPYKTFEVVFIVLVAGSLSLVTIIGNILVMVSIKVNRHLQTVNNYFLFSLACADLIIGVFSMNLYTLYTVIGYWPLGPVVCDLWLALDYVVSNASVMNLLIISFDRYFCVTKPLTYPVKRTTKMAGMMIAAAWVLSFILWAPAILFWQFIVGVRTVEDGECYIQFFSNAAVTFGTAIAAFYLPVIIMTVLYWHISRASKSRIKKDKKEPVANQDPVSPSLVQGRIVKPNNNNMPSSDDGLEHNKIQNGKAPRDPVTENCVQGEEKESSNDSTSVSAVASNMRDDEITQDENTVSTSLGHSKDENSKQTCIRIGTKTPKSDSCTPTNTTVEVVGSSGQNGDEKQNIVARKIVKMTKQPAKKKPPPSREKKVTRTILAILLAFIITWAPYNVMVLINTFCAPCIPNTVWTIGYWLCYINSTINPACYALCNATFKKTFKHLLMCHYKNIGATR

Left cardiac atrium [11] = test: Negative ionotropic activity in electrically-paced Cavia porcellus (guinea pig) left atrium measured after 60 min by isometric transducer analysis in absence of benextramine/4-DAMP mustard relative to N-dodecyl lysine amide; format: functional
Left cardiac atrium [12] = test: Negative ionotropic activity in electrically-paced Cavia porcellus (guinea pig) left atrium measured after 60 min by isometric transducer analysis in presence of bupranolol; format: functional, tissue-based
[13] = target: T2, Muscarinic acetylcholine receptor M2 (Homo sapiens); test: Allosteric modulation of Homo sapiens (human) recombinant muscarinic M2 receptor expressed in CHO cells assessed as inhibition of N-[3H]methylscopalamine dissociation at 20 uM incubated at 1 hr post N-[3H]methylscopalamine addition measured after 5 min by filter binding assay; format: cell-based
Right cardiac atrium [14] = test: Reversible negative ionotropic activity in electrically-paced Cavia porcellus (guinea pig) right atrium incubated for 30 min followed by compound-washout measured after 3 hr by isometric transducer analysis; format: functional, tissue-based
Right cardiac atrium [15] = test: Negative […] activity in electrically-paced Cavia porcellus (guinea pig) right atrium measured after 60 min by isometric transducer analysis in presence of thioperamide; format: functional, tissue-based
[16] = target: Muscarinic acetylcholine receptor M3 (Homo sapiens) (UniProt P20309); test: Binding affinity to Homo sapiens (human) recombinant muscarinic M3 receptor expressed in CHO cells assessed as [35S]GTPgammaS binding; format: functional, cell-based
Left cardiac atrium [17] = test: Negative ionotropic activity in electrically-paced Cavia porcellus (guinea pig) left atrium measured after 60 min by isometric transducer analysis in presence of prazosin; format: functional, tissue-based
Left cardiac atrium [18] = test: Negative ionotropic activity in electrically-paced Cavia porcellus (guinea pig) left atrium measured after 60 min by isometric transducer analysis in presence of AM 630; format: functional, tissue-based
Right cardiac atrium [19] = test: Negative ionotropic activity in electrically-paced Cavia porcellus (guinea pig) right atrium measured after 60 min by isometric transducer analysis in presence of dihydroergocristine; format: functional, tissue-based
[20] = target: T2, Muscarinic acetylcholine receptor M2 (Homo sapiens); test: Allosteric modulation of Homo sapiens (human) recombinant muscarinic M2 receptor expressed in CHO cells assessed as inhibition of N-[3H]methylscopalamine dissociation incubated at 1 hr post N-[3H]methylscopalamine addition measured after 5 min by filter binding assay; format: cell-based
Left cardiac atrium [21] = test: Negative ionotropic activity in electrically-paced Cavia porcellus (guinea pig) left atrium measured after 60 min by isometric transducer analysis in presence of 4-DAMP mustard; format: functional, tissue-based
Left cardiac atrium [22] = test: Negative ionotropic activity in electrically-paced Cavia porcellus (guinea pig) left atrium measured after 60 min by isometric transducer analysis in presence of naloxane; format: functional, tissue-based
Right cardiac atrium [23] = test: Negative ionotropic activity in electrically-paced Cavia porcellus (guinea pig) right atrium measured after 60 min by isometric transducer analysis in presence of bupranolol; format: functional, tissue-based
[24] = target: T2, Muscarinic acetylcholine receptor M2 (Homo sapiens); test: Binding affinity to Homo sapiens (human) recombinant muscarinic M2 receptor expressed in CHO cells assessed as [35S]GTPgammaS binding; format: functional, cell-based
Left cardiac atrium [25] = test: Negative ionotropic activity in electrically-paced Cavia porcellus (guinea pig) left atrium measured after 60 min by isometric transducer analysis in absence of benextramine/4-DAMP mustard; format: functional, tissue-based; details: 1 h
Left cardiac atrium [26] = test: Negative ionotropic activity in electrically-paced Cavia porcellus (guinea pig) left atrium measured after 60 min by isometric transducer analysis in presence of thioperamide; format: functional, tissue-based
Right cardiac atrium [27] = test: Negative ionotropic activity in electrically-paced Cavia porcellus (guinea pig) right atrium measured after 60 min by isometric transducer analysis in presence of DPCPX; format: functional, tissue-based

COc1ccccc1CN1CCC(C2CCN(CCCCCCCCN3CCC(C4CCN(Cc5ccccc5OC)CC4)CC3)CC2)CC1 [PIPERTRAMINE]
Activity (Right cardiac atrium [1]): Active | Activity [2]: inactive | Activity [3]: Active | Activity (Left cardiac atrium [4]): Active | Activity (Right cardiac atrium [5]): Active | pEC50 (Right cardiac atrium [6]): 9.56 | Activity (Left cardiac atrium [7]): inactive | Activity (Left cardiac atrium [8]): Active | Activity (Right cardiac atrium [9]): Active | Activity [10]: Active | Efficacy (Left cardiac atrium [11]): 96% | Activity (Left cardiac atrium [12]): Active | inhibition [13]: Active | Activity (Right cardiac atrium [14]): inactive | Activity (Right cardiac atrium [15]): Active | Activity [16]: inactive | Activity (Left cardiac atrium [17]): Active | Activity (Left cardiac atrium [18]): Active | Activity (Right cardiac atrium [19]): Active | INH [20]: 1.57 µM | Activity (Left cardiac atrium [21]): Active | Activity (Left cardiac atrium [22]): Active | Activity (Right cardiac atrium [23]): Active | Activity [24]: inactive | pEC50 (Left cardiac atrium [25]): 9.70 | Activity (Left cardiac atrium [26]): Active | Activity (Right cardiac atrium [27]): Active

COc1ccccc1CN1CCC(C2CCN(C(=O)CCCCCCC(=O)N3CCC(C4CCN(Cc5ccccc5OC)CC4)CC3)CC2)CC1 [PIPERTRAMINE AMIDE]
Activity (Right cardiac atrium [1]): Active | Activity [2]: inactive | Activity [3]: Active | Activity (Left cardiac atrium [4]): Active | Activity (Right cardiac atrium [5]): Active | pEC50 (Right cardiac atrium [6]): 8.41 | Activity (Left cardiac atrium [7]): inactive | Activity (Left cardiac atrium [8]): Active | Activity (Right cardiac atrium [9]): Active | Activity [10]: Active | Efficacy (Left cardiac atrium [11]): 90% | Activity (Left cardiac atrium [12]): Active | inhibition [13]: Active | Activity (Right cardiac atrium [14]): inactive | Activity (Right cardiac atrium [15]): Active | Activity [16]: inactive | Activity (Left cardiac atrium [17]): Active | Activity (Left cardiac atrium [18]): Active | Activity (Right cardiac atrium [19]): Active | INH [20]: 1.71 µM | Activity (Left cardiac atrium [21]): Active | Activity (Left cardiac atrium [22]): Active | Activity (Right cardiac atrium [23]): Active | Activity [24]: inactive | pEC50 (Left cardiac atrium [25]): 8.51 | Activity (Left cardiac atrium [26]): Active | Activity (Right cardiac atrium [27]): Active
